Measured values from US9656981B2, “Peripherally-acting cannabinoid receptor agonists for chronic pain” (The Regents of the University of California, priority 2012, dated 2017).
Like-named read-outs stand apart in the source and are kept apart here.

What was measured:
[1] = system: sciatic nerve entrapment (SNE) neuropathy; assay: SNE neuropathy, mechanical allodynia (von Frey); assay type: in vivo, rat; conditions: for effect of pretreatment with the CBR blocker on the anti-allodynic effect of PrNMI: blocker before PrNMI 0.6 mg/kg, SNE rats
Description: The effectiveness of CBR agonists was tested for alleviating the painful symptoms of neuropathy induced by unilateral sciatic nerve entrapment (SNE)^131. The peripheral neuropathy induced by SNE is highly comparative to that of chronic constriction injury (CCI), which uses chromic gut suture materials instead of polyethylene cuffs^132. […] This increased excitability is at least in part attributable to injury-induced post-transcriptional transport of the voltage-gated sodium channel 1.8 (NaV1.8) mRNA, axonal accumulation of NaV1.8 mRNA, and its local protein translation leading to the increased NaV1.8 functional expression in injured nerve^136. The hyperexcitability and ectopic burst discharge of primary sensory neurons are widely considered to be the major contributors to pain symptomatology of peripheral neuropathy models. The SNE-induced mechanical allodynia effectively models the most common complaint of human neuropathy patients of dynamic mechanical allodynia. Behavioral measurements of mechanical sensitivity were conducted before and after induction of SNE as follows:
Rats are placed in a plastic-walled cage (10×20×13 cm) with a metal mesh floor (0.6×0.6 cm holes) and allowed to acclimate for 10 min. The amount of pressure (g) needed to evoke a hindpaw withdrawal response is measured 4 times on each paw separated by 30-s intervals using a von Frey-type digital meter (Model 1601C, IITC Instr.). Results of 4 tests/session are averaged for each paw.

[2] = molecular target: CB1R (Homo sapiens, UniProt P21554); assay: CB1R radioligand displacement binding assay (CP55940 radioligand)
Description: Heterologous competition binding assays were performed to calculate receptor affinities. Unlabeled SR141716 or SR144528 were used as appropriate controls for non-specific binding (NSB) in the assay. Calculation of the equilibrium dissociation constant (Ki) was performed using the Cheng-Prusoff equation.

[3] = molecular target: CB2R (Homo sapiens, UniProt P34972); assay: CB2R radioligand displacement binding assay (CP55940 radioligand)
Description: Detailed radioligand displacement assays (using the well-characterized CBR agonist […] as the radioligand) were conducted to determine the affinity (Ki) of the test compounds for CB1R and CB2R as has been previously described by our group^112,113. Heterologous competition binding assays were performed to calculate receptor affinities. Unlabeled SR141716 or SR144528 were used as appropriate controls for non-specific binding (NSB) in the assay. Calculation of the equilibrium dissociation constant (Ki) was performed using the Cheng-Prusoff equation.

[4] = S9 fraction stability assay; assay type: in vitro ADME; conditions: rat liver S9, 10 μM
Description: Compounds are incubated at 10 μM in rat (male Sprague Dawley) liver S9 at 37° C. Each compound is prepared in ethanol at a concentration of 1 mM. An assay mixture containing S9 (1 mg protein/mL final concentration) and an NADPH regenerating system (NADP [1 mM final], glucose 6-phosphate [5 mM final] and glucose 6-phosphate dehydrogenase [1 U/mL final]) in a buffer consisting of 50 mM KPO4 phosphate buffer, pH 7.4 with 3 mM MgCl2 is prepared and preincubated at 37° C. for 5 min. A 10 μL volume of the 1 mM solution is added to 990 μL of assay mixture in a glass test tube @ 37° C. to initiate the assay. Samples (50 μL) are removed at 0, 15, 30, 60 and 120 min and immediately extracted with 3 volumes (150 μL) of methanol, centrifuged to pellet protein and supernatants transferred to LC/MS vials for analysis.

[5] = Plasma stability assay; assay type: in vitro ADME; conditions: rat plasma, 10 μM
Description: Compounds are incubated at 10 μM in rat plasma at 37° C. A solution of each compound is prepared in ethanol at a concentration of 1 mM. A 2.5 μL volume of the 1 mM solution is added to 247.5 μL of rat plasma (male Sprague Dawley) in a glass test tube in a 37° C. water bath. Samples (50 μL) are removed at 0, 30 and 60 min and immediately extracted with 3 volumes (150 μL) of methanol. Samples are centrifuged (2500 rpm for 10 min at 4° C.) to pellet protein and supernatants transferred to LC/MS vials for analysis. Samples are stored at −80° C. prior to analysis.

[6] = system: rats; assay: Rotarod test of the tetrad; assay type: in vivo, rat; conditions: 2-3 hr
Description: Rats were tested for motor function and the ataxic effects of novel drugs as described previously^151-153. To determine drug effects on motor coordination, rats are trained 72 h before the test (3 sessions 24 h apart) to remain for at least 180 s on a rotarod revolving at an acceleration of 4-40 revs over 5 min). Rats are tested immediately before vehicle or drug injections and tested again at 2, 6, 24 and 48 hrs after injection. The time for which the rats are able to remain on the rotarod is recorded up to a cut-off of 5 min.

[7] = system: rats; assay: Hypothermia test of the tetrad; assay type: in vivo, rat; conditions: 2-3 hr
Description: Rats are acclimated to a plastic restrainer apparatus (Model RTV-180 Braintree Scientific Inc.) on the day of testing by placing them in the restrainer twice for 5 min separated by 20 min. Baseline core temperature is taken before treatment, and the rectal temperature is measured again at various times after injection of the CB1R ligands.

[8] = system: rats; assay: Catalepsy (ring) test of the tetrad; assay type: in vivo, rat; conditions: 1-3 hrs
Description: Catalepsy (ring) test. Catalepsy was determined with a ring immobility test^154, modified for rats^139, 153. Rats are placed with their forepaws on a horizontal metal ring (12 cm diameter) at a height that allows their hindpaws to just touch the bench surface. Immobility is recorded as the time for the rat to move off the ring with a 100 s cutoff. Rats are tested before vehicle/drug injections and again at various times after injection.

[9] = molecular target: human CB1R (hCB1R) (Homo sapiens, UniProt P21554); assay: human CB1R (hCB1R) calcium flux assay; assay type: cell-based; conditions: Table 1; read-out: Ca Flux % Emax
Text: Compounds were first screened for: a) CB1R and CB2R binding, b) CB1R agonist activity using the human CB1R (hCB1R) calcium flux assay, and c) BBB permeability using the Madin-Darby canine kidney (MDCK-MDR1) cell line assay.
The calcium 3 dye assays were run according to manufacturer's specifications (http://www.moleculardevices.com/Products/Assay-Kits/GPCRs/FLIPR-Calcium.html) and as reported in our previous publications^112,113. Briefly, wells of black clear-bottom 96-well tissue culture-treated plates are seeded with 20,000 cells the afternoon before assay. The day of assay, the cells are incubated with the Ca^2+ indicator dye for 1 hr @ 37° C. For antagonist assays, the test compound is preincubated with the cells during the last 10 min of the dye incubation. Basal or unstimulated fluorescence intensity is recorded in the FlexStation @ 37° C. for 13 sec followed by the addition of test compound or CP 55,940 (depending on the assay endpoint). Fluorescence intensity is recorded for an additional 47 sec. The effect of test compound in each well is determined by subtracting the minimum from the maximum fluorescence during the 47-sec recording period.

[10] = Table 1, CP55940 radioligand, read-out: CB1_KI_CP
[11] = Table 1, CP55940 radioligand, read-out: CB2_KI_CP

Chain of CB2R (P34972 whole entry): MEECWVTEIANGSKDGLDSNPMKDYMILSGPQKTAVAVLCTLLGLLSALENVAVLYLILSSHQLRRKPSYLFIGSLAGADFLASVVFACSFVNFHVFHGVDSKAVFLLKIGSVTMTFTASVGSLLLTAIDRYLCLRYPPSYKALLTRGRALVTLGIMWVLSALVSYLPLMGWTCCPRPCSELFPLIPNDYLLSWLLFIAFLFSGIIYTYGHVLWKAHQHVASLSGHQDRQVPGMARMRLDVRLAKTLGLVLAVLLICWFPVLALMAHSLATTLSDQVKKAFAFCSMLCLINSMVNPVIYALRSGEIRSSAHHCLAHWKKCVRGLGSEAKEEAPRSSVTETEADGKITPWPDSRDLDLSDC
Chain of CB1R (P21554 whole entry): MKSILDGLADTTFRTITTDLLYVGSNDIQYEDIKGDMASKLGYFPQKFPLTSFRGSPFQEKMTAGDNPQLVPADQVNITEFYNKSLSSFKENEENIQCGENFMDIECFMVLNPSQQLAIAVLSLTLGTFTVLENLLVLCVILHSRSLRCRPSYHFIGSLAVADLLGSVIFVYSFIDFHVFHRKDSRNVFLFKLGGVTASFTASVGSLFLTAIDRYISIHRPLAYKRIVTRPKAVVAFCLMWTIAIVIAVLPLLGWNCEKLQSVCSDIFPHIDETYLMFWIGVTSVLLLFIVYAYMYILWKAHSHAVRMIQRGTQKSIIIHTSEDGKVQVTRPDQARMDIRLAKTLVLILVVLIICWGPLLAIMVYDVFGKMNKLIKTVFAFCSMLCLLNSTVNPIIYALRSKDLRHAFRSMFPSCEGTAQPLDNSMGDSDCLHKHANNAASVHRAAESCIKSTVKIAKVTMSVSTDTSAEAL
Chain of human CB1R (hCB1R) (P21554 whole entry): as above

Row | Molecule | Ki [2, 10] [nM] | Ki [3] [nM] | S9% remaining @ xy min ([4]; 60 min) | Plasma % remaining @ xy min ([5]; 60 min) | further results
1 | 4-{2-[(1E)-2-[(4- methoxy- naphthalen-1- yl)methylidene]- 1H-inden-3- yl]ethyl} morpholine [Compound 10] | – | – | – | – | effect on contralateral hindpaw withdrawal thresholds ([1]; 0.3 mg/kg, hindpaw contralateral to SNE): Neither ENMI nor 13339-135-25 had any significant effect
2 | COC(=O)c1ccc(C(=O)c2cn(CCN3CCOCC3)c3ccccc23)c2ccccc12 [Compound 56, methyl 4-{1-[2-(morpholin-4-yl)ethyl]-1H-indole-3-carbonyl} naphthalene-1-carboxylate] | 52.4 | 61.4 | 0 @ 60% | 0 @ 60% | –
3 | CCCCCn1cc(C(=O)c2cccc3ccccc23)c2cccc(F)c21 [Compound 65, 7-fluoro-3-(naphthalene-1-carbonyl)-1-pentyl-1H-indole] | 3.62 | – | 50% | 97 @ 60% | Rotarod % change from pre-drug (0.3 mg/kg) at 2-3 hr [6]: 0%; Hypothermia % change from predrug (0.3 mg/kg) at 2-3 hr [7]: 0%; Catalepsy % change from pre-drug (0.3 mg/kg) at 1-3 hrs [8]: 0%; SNE Neuropath Assay-% return to pre-drug (0.3 mg/kg) contralateal threshold at 2-3 h ([1]; 0.3 mg/kg): 18.6%; Ki [3, 11]: 2.7 nM; S9% remaining @ xy min ([4]; 30 min): ~58%; S9% remaining @ xy min ([4]; 120 min): 36%; Emax [9]: 79%
4 | CCCCCn1cc(C(=O)c2cccc3ccccc23)c2cc(F)ccc21 [Compound 63, 5-fluoro-3-(naphthalene-1-carbonyl)-1-pentyl-1H-indole] | 9.85 | – | 13 @ 60% | 99 @ 60% | Ki [3, 11]: 65 nM
5 | CCCCCn1cc(C(=O)c2ccc(C(=O)OC)c3ccccc23)c2ccccc21 [Compound 54, methyl 4-(1-pentyl-1H-indole-3-carbonyl) naphthalene-1-carboxylate] | – | 73.4 | – | – | Ki ([2]; read-out: CB1R binding affinity (Ki)): 20 nM; SNE Neuropath Assay-% return to pre-drug (0.3 mg/kg) contralateal threshold at 2-3 h ([1]; 0.3 mg/kg): 0%; S9% remaining @ xy min ([4]; 30 min): 2.62 @ 30%; S9% remaining @ xy min ([4]; 30 min, listed as 4-carbomethoxy ester): 3%; Plasma % remaining @ xy min ([5]; 30 min): 9.6 @ 30%
6 | CCCCCn1cc(C(=O)c2ccc(C(=O)CC)c3ccccc23)c2ccccc21 [Compound 61, 1-[4-(1-pentyl-1H-indole-3-carbonyl)naphthalen-1-yl]propan-1-one] | 5.71 | 32.7 | 3 @ 60% | 75 @ 60% | –
7 | CCCCCn1cc(C(=O)c2cccc3ccccc23)c2ccc(F)cc21 [Compound 64, 6-fluoro-3-(naphthalene-1-carbonyl)-1-pentyl-1H-indole] | 2.35 | – | – | – | effect on SNE-induced mechanical allodynia (ipsilateral hindpaw withdrawal thresholds) ([1]; 0.3 mg/kg, systemic injection): anti-allodynic effects; SNE Neuropath Assay-% return to pre-drug (0.3 mg/kg) contralateal threshold at 2-3 h ([1]; 0.3 mg/kg): 54.4%; Ki [3, 11]: 16.4 nM
8 | CCCc1ccc(C(=O)c2cn(CCCCCF)c3cccc(F)c23)c2ccccc12 [Compound 67, 4-fluoro-1-(5-fluoropentyl)-3-(4-propyl-naphthalene-1-carbonyl)-1H-indole] | 2.55 | 3.61 | 6 @ 60% | 95 @ 60% | –
9 | CCc1ccc(/C=C2\C=C(CCN3CCOCC3)c3ccccc32)c2ccccc12 [Compound 8, 4-{2-[(1E)-1-[(4-ethylnaphthalen-1-yl)methylidene]-1H-inden-3-yl]ethyl} morpholine] | 0.86 | – | – | – | Ki [2]: 1 nM; Ki [3, 11]: 0.79 nM; Emax [9]: 121%
10 | CCCCCn1cc(C(=O)c2cccc3ccccc23)c2c(F)cccc21 [Compound 62, 4-fluoro-3-(naphthalene-1-carbonyl)-1-pentyl-1H-indole] | 6.5 | – | 5 @ 60% | 69 @ 60% | Ki [3, 11]: 35.6 nM
11 | CCCCCn1cc(C(=O)c2cccc3ccccc23)c2ccccc21 [Compound 1, 3-(naphthalene-1-carbonyl)-1-pentyl-1H-indole, reference compound] | 4.31 | 7.38 | – | – | –
12 | C1=C(CCN2CCOCC2)c2ccccc2/C1=C/c1cccc2ccc3ccccc3c12 [Compound 13, 4-{2-[(1E)-1-(phenanthren-4-ylmethylidene)-1H-inden-3-yl]ethyl} morpholine] | 22.9 | 6 | – | – | –
13 | CCCCCn1cc(C(=O)c2ccc(C(N)=O)c3ccccc23)c2ccccc21 [Compound 59, 4-(1-pentyl-1H-indole-3-carbonyl)naph-thalene-1-carboxamide] | 96.6 | 135 | – | – | –
14 | C1=C(CCN2CCOCC2)c2ccccc2/C1=C/c1cccs1 [Compound 30, 4-{2-[(1E)-1-(thiophen-2-ylmethylidene)-1H-indene-3-yl]ethyl} morpholine] | 8530 | 3020 | – | – | –
15 | SR144528 [reference compound] | – | – | – | – | effect of pretreatment with the CBR blocker on the anti-allodynic effect of PrNMI [1]: little effect
16 | Cc1c(C(=O)NN2CCCCC2)nn(-c2ccc(Cl)cc2Cl)c1-c1ccc(Cl)cc1 [SR141617A, rimonabant, reference compound] | – | – | – | – | effect of pretreatment with the CBR blocker on the anti-allodynic effect of PrNMI [1]: completely blocked
17 | Brc1ccccc1/C=C1\C=C(CCN2CCOCC2)c2ccccc21 [Compound 25, 4-{2-[(1E)-1-[(2-bromophenyl)methylidene]-1H-inden-3-yl]ethyl} morpholine] | 647 | 206 | – | – | –
18 | Ic1ccccc1/C=C1\C=C(CCN2CCOCC2)c2ccccc21 [Compound 23, 4-{2-[(1E)-1-[(2-iodophenyl)methyl-idene]-1H-inden-3-yl]ethyl} morpholine] | 607 | 109 | – | – | –
